Laboratory results from BindingDB's records for doi:10.1021/jm060561m (Purdue University, 2006).

Target: T1, Dimer of Gag-Pol polyprotein [501-599,Q508K,L534I,L564I,C568A,C596A] (Human immunodeficiency virus 1, UniProt P03367, C568A/C596A/L534I/L564I/Q508K)
T1 construct: 501-599
Assay: Protease Inhibition Assay
Details: pH 6.4; 25 °C
Experimental: The Ki values were determined by substrate cleavage assay using fluorogenic substrate, 2-(aminobenzoyl)-Thr-Ile-Nle-Phe(p-NO2)-Gln-Arg-NH2. A standard curve relating changes in fluorescent intensity to changes in concentration of product was used to convert fluorescent changes into molar velocities. The amount of cleavage was determined by HPLC.

Compound | Ki [nM]
CC(C)CN(C[C@@H](O)[C@H](Cc1ccccc1)NC(=O)O[C@H]1C[C@H]2CCC[C@H]2C1)S(=O)(=O)c1ccc(CO)cc1 [(2R,3aR,6aS)-octahydropentalen-2-yl N-[(2S,3R)-3-hydroxy-4-{[4-(hydroxymethyl)benzene](2-methylpropyl)sulfonamido}-1-phenylbutan-2-yl]carbamate] | 5.3
CC(C)CN(C[C@@H](O)[C@H](Cc1ccccc1)NC(=O)O[C@@H]1C[C@@H]2CCO[C@@H]2C1)S(=O)(=O)c1ccc(N)cc1 [(3aS,5R,6aR)-hexahydro-2H-cyclopenta[b]furan-5-yl N-[(2S,3R)-4-[(4-aminobenzene)(2-methylpropyl)sulfonamido]-3-hydroxy-1-phenylbutan-2-yl]carbamate] | 0.14
